Data on 63 compounds can be found in a melting point compilation (Tetko et al.; mined from patent text by program, amines drawn as free bases though some values may be those of a salt).

`O=C1c2ccc(OC(c3ccccc3)c3ccccc3)cc2OCC1Cc1cccnc1` (stereo not drawn): the melting point was 45 °C. Under `CCCn1nc2c(N)nc3ccccc3c2c1CCNC(=O)NCC` stands 206 to 207 °C. Take `C=CCn1cc(Cn2ccnc2)c2cc(O)ccc21`: the melting point was in the range of 165 to 167 °C. Under `COC(=O)Nc1ccc(N)c([N+](=O)[O-])c1` stands 171 to 172 °C; under `COc1ccc(Nc2ccc(-c3ccnc(Nc4cc(OC)c(OC)c(OC)c4)n3)cn2)cc1`, 209 to 210 °C; under `CCCC12CCC(=O)C=C1c1c(cc(OC)c(Cl)c1Cl)O2` (stereo not drawn), 172 to 173 °C. Under `O=C1CCCCCCCCCCCCCCCCCCCCCCC1O` (stereo not drawn) stands 39 to 40 °C; under `CN(C)c1ccc(C(NC(c2ccccc2)c2ccccc2)P(O)O)cc1` (stereo not drawn), 205 °C; under `O=[N+]([O-])c1ccc2c(c1)C[C@H]1CSC(=S)N1C2`, 220 °C. The compound `CC(C)(C)c1cc(NC(=O)Nc2cccc(Oc3nc4ccccc4s3)c2)[nH]n1` registered a melting point of 110 to 111 °C.

Compound `CNC(=O)[C@@H]1C[C@@H](OC(C)(C)C)CN1S(=O)(=O)c1ccc(Cl)c(COc2cccc3c(-n4ccnc4)cc(C)nc23)c1Cl` returned a melting point of 84 °C. Consider `CCOC(=O)C1C(C)(O)CCC(O)C1(C)C` (stereo not drawn), for which the melting point was in the range of 92 to 94 °C. Under `Nc1ccc(S(=O)(=O)Nc2ccc(S(N)(=O)=O)cc2)cc1Cl` stands 197 to 198 °C; under `OCc1ccc(C2CCCc3cncn32)cc1` (stereo not drawn), 142 to 145 °C.

The compound `C=C(c1ccc(OC)c(OC2CCCC2)c1)c1n[nH]cc1CO` came in with a melting point of 121 to 123 °C. For `COC(=O)c1ccnc(N2CCN(Cc3cccnc3)C2=O)c1` the value was 165 to 167 °C. For `CCOc1nn(Cc2ccc(OCc3nc(-c4ccccc4)oc3C)nc2)cc1CCC(=O)O`, the melting point was in the range of 143 to 144 °C. As for `Cc1ccc(NC(=O)N=C2CCCN2C)cc1`, the melting point lay within 136 to 137 °C. For `CSc1ccc(Nc2cscc2C#N)c([N+](=O)[O-])c1` the value was 167 to 169 °C. The compound `Cc1cc(CSc2cccc(OCc3cccc4ccccc34)c2)oc(=O)c1` gave a melting point of 139 °C. With `COc1ccc(-c2c(NC(=O)c3cc(C(C)(C)C)c(O)c(C(C)(C)C)c3)cnc3ccc(Cl)cc23)cc1OC`, the melting point lay in the range of 293 to 294 °C. The compound `Cn1c(C(=O)O)c(-c2ccc(F)cc2)c2ccsc2c1=O` gave a melting point of 205 °C. For `CCOC(Cc1ccc(NC/C=C/c2ccc(OS(C)(=O)=O)cc2)cc1)C(=O)O` (stereo not drawn) the value was 146 to 148 °C; for `C[C@H](C(=O)c1ccccc1F)n1ccn(-c2ccc(OCC(F)(F)C(F)F)cc2)c1=O`, 71 to 73 °C.

`Cc1oc(-c2ccco2)nc1COc1ccc(COc2nn(-c3ccccc3)cc2CO)cc1` registered a melting point of 113 to 114 °C. For `COC(=O)c1ccc(CC(C)NCC(O)c2cc(Cl)c(N)c(Cl)c2)cc1` (stereo not drawn) the value was 97 to 115 °C; for `O=c1cc(C(F)(F)F)c2ccc(NCCc3ccccc3)nc2o1`, 104 to 106 °C. Turning to `Fc1nccc(I)c1CCCCl`, the melting point fell in the range of 24 to 25 °C. For `CCCCCc1nc(C(=O)OCC)c(C)[nH]1` the value was 89 to 90 °C; for `CCN(C(=O)N1CCN(c2cc(C)cc(C)c2)CC1)c1cc(C)c(C)cc1OC`, 80 to 82 °C. Take `Cc1cc(-n2ccc(OCc3ccccc3)cc2=O)sc1C(=O)NCc1cccnc1`: the melting point lay within 165 to 167 °C. In the case of `C#Cc1cc2cccnc2c(-c2cccc([N+](=O)[O-])c2)n1`, the melting point came out at 215 °C. For the compound `COc1ccc(C2=NN(C3CCN(S(=O)(=O)N(C)C)CC3)C(=O)C(C)(C)C2)cc1OC`, the melting point fell in the range of 172 to 174 °C. Under `N#Cc1ccc(OCCCCOc2cccc(-c3cc4ccc(C#N)cc4o3)c2)cc1` stands 129 to 130 °C. Under `Nc1nc(C2CCCCN2)ncc1-c1ccc(Cl)cc1Cl` (stereo not drawn) stands 169 °C; under `N#Cc1cc(S(=O)(=O)C(F)(F)F)[nH]c1-c1ccc(Cl)cc1`, 228 to 230 °C; under `O=C(CCC(=O)N1CCC(c2ccc(F)cc2)CC1)c1ccc2c(c1)CCNCC2`, 127 to 128 °C. For `Cc1ccc(C(O)CCN(C)C)s1` (stereo not drawn) the value was 66.5 to 68 °C. `NS(=O)(=O)c1cc2c(s1)S(=O)(=O)N(CCc1ccccc1)C[C@H]2O` displayed a melting point of 117 to 119 °C. For `CCCc1nc(C(C)(C)O)c(C(=O)OCC)n1Cc1ccc(-c2ccccc2C(N)=O)cc1` the value was 148 to 151 °C; for `O=C(N1CCCC1)N1Cc2c(-c3noc(C4CC4)n3)ncn2-c2cccc(F)c21`, 220 to 222 °C. Under `Cn1cc(C2=C(c3cn(CCCSC4=NCCS4)c4ccccc34)C(=O)NC2=O)c2ccccc21` stands 170 to 173 °C; under `CC(C)CCNCC(O)C(CC(C)C)NC(=O)C(Cc1c[nH]cn1)NC(=O)C(CC(=O)NCCc1ccccc1)Cc1cccc2ccccc12` (mixture of isomers), 92 to 97 °C; under `N#CC(=Cc1cc(F)ccc1[N+](=O)[O-])C(N)=O`, 162 to 166 °C. For `CCC1=C(C)CN(C(=O)NC2COc3cc(OC)ccc3C2)C1=O` (stereo not drawn) the value was 118 to 119 °C. For `O=S(=O)(CCCCl)c1ccccc1`, the melting point fell in the range of 55 to 58 °C.

Compound `Cn1c2ccc(Cl)cc2c2cc(C(=O)O)sc21` came in with a melting point of 259 to 262 °C. For `NC(=O)CN(CCCCCCNc1nsc2nccn12)S(=O)(=O)c1cccc2ccccc12` the value was 141 to 144 °C; for `CC1(C)CCONC1=O`, 115 to 119 °C; for `CCN(CC)CCCNc1ncc2cc(-c3c(Cl)cccc3Cl)c(=N)n(C)c2n1`, 154 to 156 °C. For `ClCCOc1ccc(C2=C(c3ccccc3)CCCc3cc(OC4CCCCO4)ccc32)cc1` (stereo not drawn) the value was 153 to 155 °C.

The compound `CCOC(=O)c1cnc2sc(CN3CCOCC3)c(C)c2c1O` came in with a melting point of 182 to 185 °C. For `Nc1ncnc2c1ncn2Cc1ccccc1` the value was 231 to 232 °C; for `CCC=C(CCC)c1c2c(nn1C)N(c1c(C)cc(C)cc1Cl)CCC2`, 86.7 to 88.2 °C; for `CN(Cc1cc(C(F)(F)F)cc(C(F)(F)F)c1)C(=O)c1c(-c2ccc(F)cc2)c2c(c(=O)n1C)CCCN2`, 226 to 228 °C. For `CCOC(=O)CC(NC(=O)CNC(=O)c1csc(N=C2NCCN2)n1)c1cccnc1` (racemic) the value was 198 to 199 °C; for `CC(=O)NN=C(C(=O)NN)c1ccccc1`, 177 °C. Under `O=C(NCCC1CCCCC1)c1cc(-c2ccc(Cl)c(C(=O)O)n2)ccc1Cl` stands 116 to 120 °C; under `Cc1cc(O)c(Oc2ccccc2C#N)cc1-n1cccc1`, 158 to 160 °C. In turn, `CS(=O)(=O)c1ccc(-c2sc(COc3cccc(Cl)c3)nc2-c2ccccc2F)cc1` showed a melting point of 152 to 153 °C.

Consider `CC(C)n1cnc2c(Cl)nc(N)nc21`, for which the melting point was 135 to 136 °C. As to `Cc1nc(COc2ccc(Cl)cc2)sc1C(=O)N[C@H](C)[C@](O)(Cn1cncn1)c1ccc(F)cc1F`, the melting point was in the range of 134 to 135 °C. As for `C#Cc1ccc(Nc2c(C(=O)c3nccn3C)ccc(F)c2F)c(F)c1`, the melting point stood at 166 °C.

As a reminder, the melting point is the temperature, or range, at which the solid turns liquid.
